Test results from ChEMBL document CHEMBL5614444, “Advancements in Targeted Therapeutics: Integrating Metabolic Modulation, Immune Engineering, and Biologic Formulation Technologies” (ACS Med Chem Lett, 2024).
Calls of active or inactive are those of the source. The calls are words filed in the database; no cut-off is given here.

Tests used:
[1] = target: T1, Peroxisome proliferator-activated receptor gamma (Homo sapiens) (UniProt P37231); assay: (§1) Antagonist activity at PPARgamma (unknown origin); details: filed as antagonist
T1 sequence (whole entry): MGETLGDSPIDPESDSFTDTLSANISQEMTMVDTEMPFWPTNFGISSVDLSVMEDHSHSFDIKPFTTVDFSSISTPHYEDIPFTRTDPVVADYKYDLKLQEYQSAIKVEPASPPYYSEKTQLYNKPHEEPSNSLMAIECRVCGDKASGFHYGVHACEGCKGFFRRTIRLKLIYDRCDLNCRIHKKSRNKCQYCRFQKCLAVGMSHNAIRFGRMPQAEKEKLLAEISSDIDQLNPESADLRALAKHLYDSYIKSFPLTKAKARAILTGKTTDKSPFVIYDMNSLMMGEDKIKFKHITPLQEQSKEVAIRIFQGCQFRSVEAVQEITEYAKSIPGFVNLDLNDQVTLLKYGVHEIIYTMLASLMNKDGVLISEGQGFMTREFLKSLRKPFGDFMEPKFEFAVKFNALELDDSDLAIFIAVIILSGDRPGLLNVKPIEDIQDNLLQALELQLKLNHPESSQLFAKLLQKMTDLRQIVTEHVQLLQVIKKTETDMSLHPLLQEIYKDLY

[2] = target: T2, Peroxisome proliferator-activated receptor gamma (Homo sapiens, UniProt P37231); assay: as §1
T2 sequence (P37231 whole entry): T1 sequence (whole entry)

[3] = target: T1, Peroxisome proliferator-activated receptor gamma (Homo sapiens); assay: Inhibition of PPARgamma (unknown origin)

| Compound | Activity [1] | also measured |
| --- | --- | --- |
| COP(=O)(OC)OC(c1ccc(Cl)cc1)P(=O)(OC)OC (centres undefined) | Active | – |
| Cc1cc([N+](=O)[O-])ccc1NS(=O)(=O)c1cc(Cl)ccc1Cl | Active | – |
| O=C(Nc1ccccc1)c1cc([N+](=O)[O-])ccc1Cl | – | IC50 [2]: 3.3 nM |
| COc1ccc2nccc(NC(=O)c3cc([N+](=O)[O-])ccc3Cl)c2c1 | – | inhibition [3]: Active |
